{"source": "patent US20220081435A1", "about": "“ANDROGEN RECEPTOR PROTEIN DEGRADERS” (THE REGENTS OF THE UNIVERSITY OF MICHIGAN, priority 2019, published 2022)", "key": {"[1]": {"system": "AR-regulated gene expression (PSA, TMPRSS2, FKBP5)", "experiment": "Suppression of AR-regulated gene expression in LNCaP cells (qRT-PCR)", "format": "cell-based", "experimental": "Quantitative Real-Time Polymerase Chain Reaction (qRT-PCR). Real-time PCR was performed using QuantStudio 7 Flex Real-Time PCR System as described previously.^43,44 RNA was purified using the Qiagen RNase-Free DNase set, then after quantification, the extracted RNA was converted to cDNA using High Capacity RNA-to-cDNA Kit from Applied Biosystems (Thermo Fisher Scientific). The levels of AR, TMPRSS2, FKBP5, PSA(KLK3) and GAPDH were quantified using TaqMan Fast Advanced Master Mix from Applied Biosystems. The level of gene expression was evaluated using comparative CT method, which compares the CT value to GAPDH (ACT) and then to vehicle control (ΔΔCT)."}, "AR protein": {"biological_target": "T1, AR protein (Homo sapiens, UniProt P10275, T878A)", "T1 construct": "The percent AR protein degradation induced by these compounds at various concentrations in LNCaP cells; host or cells: LNCaP", "T1 sequence (P10275 1-920 T878A)": "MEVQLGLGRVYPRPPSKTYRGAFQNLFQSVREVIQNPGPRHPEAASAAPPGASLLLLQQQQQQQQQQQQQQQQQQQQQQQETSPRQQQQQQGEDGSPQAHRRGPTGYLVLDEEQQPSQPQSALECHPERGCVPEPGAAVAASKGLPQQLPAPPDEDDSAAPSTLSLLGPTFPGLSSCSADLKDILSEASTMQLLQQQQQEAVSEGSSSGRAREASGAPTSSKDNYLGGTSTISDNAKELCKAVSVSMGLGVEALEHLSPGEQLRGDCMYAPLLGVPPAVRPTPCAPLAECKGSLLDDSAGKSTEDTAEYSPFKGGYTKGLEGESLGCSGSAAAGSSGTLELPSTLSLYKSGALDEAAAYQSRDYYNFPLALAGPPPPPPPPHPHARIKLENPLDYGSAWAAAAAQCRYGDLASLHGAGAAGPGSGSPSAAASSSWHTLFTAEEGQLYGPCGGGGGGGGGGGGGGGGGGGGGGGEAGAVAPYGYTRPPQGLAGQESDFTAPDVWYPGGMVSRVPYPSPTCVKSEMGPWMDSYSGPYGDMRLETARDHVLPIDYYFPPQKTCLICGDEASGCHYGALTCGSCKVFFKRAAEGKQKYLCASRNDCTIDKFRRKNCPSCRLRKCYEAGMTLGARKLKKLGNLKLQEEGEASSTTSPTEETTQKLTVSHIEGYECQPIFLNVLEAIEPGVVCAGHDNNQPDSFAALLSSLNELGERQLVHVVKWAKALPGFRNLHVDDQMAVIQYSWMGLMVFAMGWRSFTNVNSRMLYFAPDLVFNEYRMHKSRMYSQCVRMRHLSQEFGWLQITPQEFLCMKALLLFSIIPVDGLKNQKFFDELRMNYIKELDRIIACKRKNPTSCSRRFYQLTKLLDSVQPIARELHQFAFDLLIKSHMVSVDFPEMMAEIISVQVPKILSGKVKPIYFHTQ", "experiment": "AR protein degradation in LNCaP cells (Western blotting)", "format": "cell-based", "settings": "for % AR protein degradation in LNCaP Cells: treatment time 6 h, average of three independent experiments", "how_it_was_run": "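LNCaP cells were cultured with 10% FBS at 37° C and lysed in RIPA buffer after treatment. AR levels were measured by Western blot. Degradation percentage was quantified by densitometry as the background-corrected AR band relative to the loading control.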"}}}
{"smiles": "Cc1ncsc1-c1ccc([C@H](CC(=O)N2CCC(N3CCC(C#Cc4ccc(C(=O)NC5C(C)(C)C(Oc6ccc(C#N)c(Cl)c6)C5(C)C)cc4)CC3)CC2)NC(=O)[C@@H]2C[C@@H](O)CN2C(=O)[C@@H](NC(=O)C2(F)CC2)C(C)(C)C)cc1", "note": "(stereo partly drawn) [Compound 34, (2S,4R)—N—((S)-3-(4-((4-(((1r,3r)-3-(3-Chloro-4-cyanophenoxy)-2,2,4,4-tetramethyl-cyclobutyl)carbamoyl)phenyl)ethynyl)-[1,4′-bipiperidin]-1′-yl)-1-(4-(4-methylthiazol-5-yl)phenyl)-3-oxopropyl)-1-((S)-2-(1-fluorocyclopropane-1-carboxamido)-3,3-dimethylbutanoyl)-4-hydroxypyrrolidine-2-carboxamide]", "values": [{"measurement": "Potency relative to AR antagonist 6 in suppressing AR-regulated gene transcription", "setting": "[1]", "result": "> 100", "unit": "times"}, {"measurement": "Reduction of mRNA level of both PSA and TMPRSS2 genes", "setting": "[1]; 10 nM", "result": "> 50", "unit": "%"}, {"measurement": "Expression of PSA, TMPRSS2 and FKBP5 genes", "setting": "[1]; dose-dependent, data not shown", "result": "effectively suppressed"}, {"measurement": "% AR protein degradation in LNCaP Cells", "setting": "AR protein; 0.01 μM", "result": 89, "unit": "%"}, {"measurement": "% AR protein degradation in LNCaP Cells", "setting": "AR protein; 0.1 μM", "result": 99, "unit": "%"}, {"measurement": "% AR protein degradation in LNCaP Cells", "setting": "AR protein; 1 μM", "result": 100, "unit": "%"}, {"measurement": "AR degradation", "setting": "AR protein; LNCaP, 10 nM, 24 h treatment", "result": "> 95", "unit": "%"}, {"measurement": "Time to effective reduction of AR protein level", "setting": "AR protein; LNCaP, 100 nM", "result": "≤ 2", "unit": "h"}, {"measurement": "AR depletion with a 4 h treatment", "setting": "AR protein; LNCaP, 100 nM, 4 h", "result": "near-complete AR depletion"}, {"measurement": "DC50", "setting": "AR protein; LNCaP, 24 h treatment, read-out: DC50 (drug concentration that results in 50% protein degradation)", "result": 0.86, "unit": "nM"}, {"measurement": "AR degradation (Western blotting, dose-dependent)", "setting": "AR protein; LNCaP, at 10 nM", "result": "partial AR degradation"}, {"measurement": "AR degradation (Western blotting, dose-dependent)", "setting": "AR protein; LNCaP, at both 100 nM and 1 μM", "result": "essentially complete AR degradation"}, {"measurement": "Rank as AR degrader among 32, 34 and 35", "setting": "AR protein; LNCaP, based upon the data obtained at 10 nM", "result": "most potent"}, {"measurement": "AR degradation after pretreatment with AR antagonist (6), VHL-d, MLN4924 or MG132", "setting": "AR protein; LNCaP, data not shown", "result": "effectively blocked"}]}
